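Test compounds were applied to cells in 96-well plates for 48 hours at 5 doses. GI50 is the concentration that inhibits growth by half.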 The source made the active and inactive calls. Rule as the data show it: active = GI50 up to about 1.1 µM and inactive = higher.
Columns and labels:
Test in all cases: inhibition of tumour cell growth, NCI panel, 48 h
SF-268 = tested on: SF-268
Hs-578T = tested on: Hs-578T
OVCAR-4 = tested on: OVCAR-4
NCI-H23 = tested on: NCI-H23
HT-29 = tested on: HT-29
Malme-3M = tested on: Malme-3M
LOX IMVI = tested on: LOX IMVI
MDA-MB-231 = tested on: MDA-MB-231
U-251 = tested on: U-251
MCF7 = tested on: MCF7
MDA-MB-435 = tested on: MDA-MB-435
IGROV-1 = tested on: IGROV-1
BT-549 = tested on: BT-549
SR = tested on: SR
SK-MEL-2 = tested on: SK-MEL-2
UO-31 = tested on: UO-31
MOLT-4 = tested on: MOLT-4
ACHN = tested on: ACHN
786-0 = tested on: 786-0
A549 = tested on: A549
M14 = tested on: M14
HCT-15 = tested on: HCT-15
TK-10 = tested on: TK-10
NCI-H226 = tested on: NCI-H226
UACC-62 = tested on: UACC-62
HCC 2998 = tested on: HCC 2998
PC-3 = tested on: PC-3
NCI-H460 = tested on: NCI-H460
OVCAR-8 = tested on: OVCAR-8
A498 = tested on: A498
OVCAR-3 = tested on: OVCAR-3
SW-620 = tested on: SW-620
RPMI-8226 = tested on: RPMI-8226
K562 = tested on: K562
HOP-92 = tested on: HOP-92
OVCAR-5 = tested on: OVCAR-5
NCI/ADR-RES = tested on: NCI/ADR-RES
SF-539 = tested on: SF-539
COLO 205 = tested on: COLO 205
SN12C = tested on: SN12C
SF-295 = tested on: SF-295
SK-MEL-5 = tested on: SK-MEL-5
EKVX = tested on: EKVX
KM12 = tested on: KM12
SK-MEL-28 = tested on: SK-MEL-28
HL-60 = tested on: HL-60
RXF 393 = tested on: RXF 393
MDA-N = tested on: MDA-N
HOP-62 = tested on: HOP-62
SNB-19 = tested on: SNB-19
DU-145 = tested on: DU-145
HCT-116 = tested on: HCT-116
UACC-257 = tested on: UACC-257
CAKI-1 = tested on: CAKI-1
NCI-H522 = tested on: NCI-H522
CCRF-CEM = tested on: CCRF-CEM
SNB-75 = tested on: SNB-75
SK-OV-3 = tested on: SK-OV-3

Compound: CC(C)N1[C@@H]2CCCC[C@H]2N(C(C)C)P1(=O)C(=O)/C=C/c1ccccc1
- GI50 (SF-268): 2.44 µM (inactive)
- GI50 (Hs-578T): 1.71 µM (inactive)
- GI50 (OVCAR-4): 1.67 µM (inactive)
- GI50 (NCI-H23): 2.16 µM (inactive)
- GI50 (HT-29): 2.79 µM (inactive)
- GI50 (Malme-3M): 1 µM (active)
- GI50 (LOX IMVI): 2.03 µM (inactive)
- GI50 (MDA-MB-231): 2.98 µM (inactive)
- GI50 (U-251): 4.08 µM (inactive)
- GI50 (MCF7): 3.5 µM (inactive)
- GI50 (MDA-MB-435): 1.76 µM (inactive)
- GI50 (IGROV-1): 1.98 µM (inactive)
- GI50 (BT-549): 2.91 µM (inactive)
- GI50 (SR): 2.83 µM (inactive)
- GI50 (SK-MEL-2): 2.72 µM (inactive)
- GI50 (UO-31): 1.64 µM (inactive)
- GI50 (MOLT-4): 2.7 µM (inactive)
- GI50 (ACHN): 2.69 µM (inactive)
- GI50 (786-0): 1.81 µM (inactive)
- GI50 (A549): 3.35 µM (inactive)
- GI50 (M14): 2.02 µM (inactive)
- GI50 (HCT-15): 1.92 µM
- GI50 (TK-10): 3.51 µM (inactive)
- GI50 (NCI-H226): 3.52 µM (inactive)
- GI50 (UACC-62): 2.57 µM (inactive)
- GI50 (HCC 2998): 2.18 µM (inactive)
- GI50 (PC-3): 4.18 µM (inactive)
- GI50 (NCI-H460): 2.97 µM (inactive)
- GI50 (OVCAR-8): 1.73 µM (inactive)
- GI50 (A498): 2.75 µM (inactive)
- GI50 (OVCAR-3): 2.38 µM (inactive)
- GI50 (SW-620): 2.58 µM (inactive)
- GI50 (RPMI-8226): 2.49 µM (inactive)
- GI50 (K562): 2.52 µM (inactive)
- GI50 (HOP-92): 1.76 µM (inactive)
- GI50 (OVCAR-5): 2.37 µM (inactive)
- GI50 (NCI/ADR-RES): 2.02 µM (inactive)
- GI50 (SF-539): 1.82 µM (inactive)
- GI50 (COLO 205): 1.91 µM (inactive)
- GI50 (SN12C): 1.99 µM (inactive)
- GI50 (SF-295): 10.6 µM (inactive)
- GI50 (SK-MEL-5): 1.5 µM (inactive)
- GI50 (EKVX): 3.54 µM (inactive)
- GI50 (KM12): 3.23 µM (inactive)
- GI50 (SK-MEL-28): 2.37 µM (inactive)
- GI50 (HL-60): 1.65 µM (inactive)
- GI50 (RXF 393): 1.69 µM (inactive)
- GI50 (MDA-N): 1.83 µM (inactive)
- GI50 (HOP-62): 3.88 µM (inactive)
- GI50 (SNB-19): 5.52 µM (inactive)
- GI50 (DU-145): 2.08 µM (inactive)
- GI50 (HCT-116): 1.96 µM (inactive)
- GI50 (UACC-257): 3.08 µM (inactive)
- GI50 (CAKI-1): 2.54 µM (inactive)
- GI50 (NCI-H522): 1.53 µM (inactive)

Compound: CC(C)(C)C1CC[C@H](O)[C@H]([C@@H](O)CC2CC(=O)N(c3ccccc3)C(=O)C2)C1 (stereo not given in full)
- GI50 (SF-268): > 100 µM (inactive)
- GI50 (Hs-578T): > 100 µM (inactive)
- GI50 (OVCAR-4): 57.5 µM (inactive)
- GI50 (NCI-H23): > 100 µM (inactive)
- GI50 (HT-29): 23.1 µM (inactive)
- GI50 (Malme-3M): 65.5 µM (inactive)
- GI50 (LOX IMVI): 49.3 µM (inactive)
- GI50 (MDA-MB-231): 67.3 µM (inactive)
- GI50 (U-251): 55.8 µM (inactive)
- GI50 (MCF7): 44.2 µM (inactive)
- GI50 (MDA-MB-435): 55.2 µM (inactive)
- GI50 (IGROV-1): > 100 µM (inactive)
- GI50 (BT-549): 29.4 µM (inactive)
- GI50 (SR): 40.9 µM (inactive)
- GI50 (CCRF-CEM): 51.9 µM (inactive)
- GI50 (UO-31): 76.4 µM (inactive)
- GI50 (MOLT-4): 38.9 µM (inactive)
- GI50 (ACHN): 69 µM (inactive)
- GI50 (786-0): > 100 µM (inactive)
- GI50 (A549): 67.5 µM (inactive)
- GI50 (M14): 43.8 µM (inactive)
- GI50 (HCT-15): 56.4 µM
- GI50 (TK-10): > 100 µM (inactive)
- GI50 (NCI-H226): > 100 µM (inactive)
- GI50 (UACC-62): 26.6 µM (inactive)
- GI50 (HCC 2998): 27.9 µM (inactive)
- GI50 (PC-3): 91.8 µM (inactive)
- GI50 (NCI-H460): 44.2 µM (inactive)
- GI50 (OVCAR-8): 50.7 µM (inactive)
- GI50 (A498): > 100 µM (inactive)
- GI50 (OVCAR-3): 50.9 µM (inactive)
- GI50 (SNB-75): > 100 µM (inactive)
- GI50 (SW-620): > 100 µM (inactive)
- GI50 (RPMI-8226): 46.2 µM (inactive)
- GI50 (K562): 54.1 µM (inactive)
- GI50 (HOP-92): 23.3 µM (inactive)
- GI50 (OVCAR-5): > 100 µM (inactive)
- GI50 (NCI/ADR-RES): 67.9 µM (inactive)
- GI50 (SF-539): > 100 µM (inactive)
- GI50 (SN12C): > 100 µM (inactive)
- GI50 (SF-295): > 100 µM (inactive)
- GI50 (SK-MEL-5): 45.2 µM (inactive)
- GI50 (EKVX): 70 µM (inactive)
- GI50 (KM12): 47.5 µM (inactive)
- GI50 (SK-MEL-28): > 100 µM (inactive)
- GI50 (HL-60): 28.1 µM (inactive)
- GI50 (RXF 393): 64 µM (inactive)
- GI50 (MDA-N): > 100 µM (inactive)
- GI50 (HOP-62): > 100 µM (inactive)
- GI50 (SNB-19): > 100 µM (inactive)
- GI50 (DU-145): 55.3 µM (inactive)
- GI50 (HCT-116): 60.5 µM (inactive)
- GI50 (UACC-257): 89.9 µM (inactive)
- GI50 (CAKI-1): > 100 µM (inactive)
- GI50 (NCI-H522): > 100 µM (inactive)

Compound: O=C1C=C(Sc2ccccc2)c2nccc3c2c1nc1ccccc13
- GI50 (SF-268): 12.4 µM (inactive)
- GI50 (Hs-578T): 15.8 µM (inactive)
- GI50 (OVCAR-4): 16.1 µM (inactive)
- GI50 (NCI-H23): 23.6 µM (inactive)
- GI50 (HT-29): 11.2 µM (inactive)
- GI50 (Malme-3M): 12.2 µM (inactive)
- GI50 (LOX IMVI): 11.8 µM (inactive)
- GI50 (MDA-MB-231): 20 µM (inactive)
- GI50 (U-251): 18.5 µM (inactive)
- GI50 (MCF7): 14.9 µM (inactive)
- GI50 (MDA-MB-435): 16.9 µM (inactive)
- GI50 (IGROV-1): 11.2 µM (inactive)
- GI50 (BT-549): 16 µM (inactive)
- GI50 (SR): 5.92 µM (inactive)
- GI50 (CCRF-CEM): 3.13 µM (inactive)
- GI50 (SK-MEL-2): 14.2 µM (inactive)
- GI50 (UO-31): 12.8 µM (inactive)
- GI50 (MOLT-4): 4.27 µM (inactive)
- GI50 (ACHN): 19.3 µM (inactive)
- GI50 (786-0): 16.9 µM (inactive)
- GI50 (A549): 31.5 µM (inactive)
- GI50 (M14): 13.3 µM (inactive)
- GI50 (HCT-15): 12.2 µM
- GI50 (TK-10): 31.1 µM (inactive)
- GI50 (NCI-H226): 72.6 µM (inactive)
- GI50 (UACC-62): 15.5 µM (inactive)
- GI50 (HCC 2998): 17.5 µM (inactive)
- GI50 (PC-3): 13.3 µM (inactive)
- GI50 (SK-OV-3): 80 µM (inactive)
- GI50 (NCI-H460): 23.6 µM (inactive)
- GI50 (OVCAR-8): 18.1 µM (inactive)
- GI50 (OVCAR-3): 3.35 µM (inactive)
- GI50 (SNB-75): 33.3 µM (inactive)
- GI50 (SW-620): 14.8 µM (inactive)
- GI50 (RPMI-8226): 28.1 µM (inactive)
- GI50 (K562): 0.0234 µM (active)
- GI50 (HOP-92): 17.9 µM (inactive)
- GI50 (OVCAR-5): 32.4 µM (inactive)
- GI50 (NCI/ADR-RES): 21.8 µM (inactive)
- GI50 (SF-539): 17.1 µM (inactive)
- GI50 (COLO 205): 16.6 µM (inactive)
- GI50 (SN12C): 17.8 µM (inactive)
- GI50 (SF-295): 29.4 µM (inactive)
- GI50 (EKVX): 20.7 µM (inactive)
- GI50 (KM12): 16.7 µM (inactive)
- GI50 (SK-MEL-28): 19.3 µM (inactive)
- GI50 (HL-60): 2.08 µM (inactive)
- GI50 (MDA-N): 16.9 µM (inactive)
- GI50 (HOP-62): 14 µM (inactive)
- GI50 (SNB-19): 37.2 µM (inactive)
- GI50 (DU-145): 40.9 µM (inactive)
- GI50 (HCT-116): 15.1 µM (inactive)
- GI50 (UACC-257): 15.5 µM (inactive)
- GI50 (CAKI-1): 44.2 µM (inactive)
- GI50 (NCI-H522): 2.33 µM (inactive)

From ChEMBL document CHEMBL1201862, “PubChem BioAssay data set” (2004)
